“And” between values parts separate entries of the source, which are not always exact repeats. Identical values can stand only once. Like-named read-outs stand apart in the source and are kept apart here.
Tests used:
[1] = test system: isolated human atrial tissue; conditions: isolated human atrial tissue from cardiac bypass; ref [6]; cited from earlier work
[2] = cited from earlier work; for peak plasma concentration for improved ejection fraction and work product: ref [17]
[3] = test system: human ventricular cardiac tissue strips (hvCTS); assay: hvCTS drug screening: twitch force under electrical pacing; format: cell-based; conditions: for IC50 / EC50: Homo sapiens; for IC50: read-out: IC50, developed contractile force
Experimental: One of ordinary skill in the art will recognize that the gels can be formed in any of a variety of sizes and shapes, and the molds used to form such gels can also be formed in any of a variety of sizes and shapes, depending on the intended use of the molded gel. The molded mixtures were then bathed with culture medium (DMEM supplemented with 10% newborn calf serum), and maintained in culture with daily half-medium exchanges. Inserts in the casting molds were removed at 48 hours, yielding a self-assembled hvCTS held between 0.5-mm-diameter circular PDMS posts at each end. It is apparent that the posts can be formed from any flexible material amenable to at least one form of sterilization are suitable. As noted above, the whole mold can be scaled up or down depending on the application, and the posts can also be scaled up or down. In general, the height of the posts would be similar to the height of a well (e.g., about 6 mm in an exemplary embodiment). Any of a wide variety of cross-sectional shapes is contemplated as being suitable for use in the system, apparatus and methods according to the disclosure. At 7 days after hvCTS creation, the hvCTS were used for drug screening.
Initially, pharmacological compounds were prepared for screening. Compounds for unblinded “open label” screening were purchased from Sigma and stock solutions at the highest possible concentrations were prepared according to the product information. Working concentrations over a 5-logarithmic range were prepared for each drug.
Working concentrations over a 5-logarithmic range were prepared for each drug according to the dose-range recommendation provided by the supplier.
New born calf serum containing medium was replaced with DMEM high glucose with HEPES without phenol red for optical measurement of generated force in hvCTS. […] The integrated flexible PDMS posts were used as force sensors, with the post deflection captured in real-time with a high-speed camera (100 frames/s) and LabView software (National Instruments, Austin, Tex., USA), applying a beam-bending equation from elasticity theory to calculate twitch force, as described previously^[2] and incorporated herein by reference. These measurements were obtained with the hvCTS maintained in the original molds where they were created with the hvCTS bathed in culture medium at 37° C. For each drug, force generated in response to 9 doses were measured with the drugs added to the hvCTS at half log increments in a cumulative manner. For each dose, the force generated at 0 Hz, 0.5 Hz, 1 Hz, 1.5 Hz and 2 Hz electrical pacing with field electrodes were measured.
Data analysis. Data were calculated and analyzed by a customized MatLab program. Force frequency curves for each drug were generated by plotting the generated force at 0.5 Hz, 1 Hz, 1.5 Hz and 2 Hz at different concentrations. All forces were normalized to the generated force at 0.5 Hz at the drug-free baseline condition (100%).
[…] The force generated under drug-free baseline condition was defined as 100%. The force generated at each drug concentration was then normalized to the generated force under the cognate drug-free baseline condition. The EC50 of each tested drug was estimated by fitting to a four-parameter dose-response equation given as: Y=Bottom+(Top-Bottom)/(1+10^((Log EC^50^−X)*HillSlope)), using commercial software (GraphPad Software Inc.). X is the logarithm of drug concentrations; […]; Top and Bottom are the Y values of the top and bottom plateaus of the curve itself; Baseline is the Y value that defines 0%—maximal inhibition by a standard drug. Hill Slope quantifies the steepness of the dose-response curve (the higher the Hill Slope, the steeper the curve).

[4] = test system: human atrial and ventricular cardiomyocytes; conditions: ref [8]; cited from earlier work
[5] = test system: chick embryonic ventricular cells; conditions: ref [9]; cited from earlier work
canine papillary muscle = conditions: ref [11]; cited from earlier work
human atrial trabeculae = conditions: ref [13]; cited from earlier work
rat atrial trabeculae = conditions: ref [14]; cited from earlier work
[6] = test system: human right atrial trabeculae; conditions: ref [21]; cited from earlier work
[7] = 1 Hz pacing, blinded screening, Example 4
[8] = Blinded, 1 Hz pacing, read-out: -log EC50 in hvCTS (converted)
[9] = Blinded, 1 Hz pacing, read-out: EC50 in hvCTS (in brackets)
[10] = 1 Hz pacing, unblinded screening, Example 3
[11] = Unblinded, 1 Hz pacing, read-out: -log EC50 in hvCTS (converted)
[12] = Unblinded, 1 Hz pacing, read-out: EC50 in hvCTS (in brackets)
[13] = 1 Hz pacing, blinded screening, Example 4, read-out: EC50, developed contractile force
[14] = 1 Hz pacing, unblinded screening, Example 3, read-out: EC50, developed contractile force

CN(C)CCC=C1c2ccccc2CCc2ccccc21 [Amitriptyline]
30-60% effective concentration [1]: 40-400 μM [6], 30-60% effective concentration | plasma concentration in psychiatric patients ([2]; ref [5]): 98-208 ng/mL and 0.35-0.74 μM | IC50 [3, 7]: 450 µM | EC50 [3, 8]: 447000 nM | EC50 [3, 9]: 450000 nM

CC(=O)Oc1ccccc1C(=O)O [Aspirin]
effect on developed contractile force / contractility ([3]; blinded screening, Example 4): did not show any dose-dependent effect on contractility

CC(C)COCC(CN(Cc1ccccc1)c1ccccc1)N1CCCC1 (centres unmarked) [Bepridil]
IC50 [3, 10]: 3.3 µM | EC50 [3, 11]: 38000 nM | EC50 [3, 12]: 37900 nM | relevant concentration [4]: 100 μM [8], human atrial and ventricular

Cn1c(=O)c2c(ncn2C)n(C)c1=O [Caffeine]
relevant concentration [5]: 20 mM [9], in chick embryonic ventricular cells | EC50 [3, 13]: 290 nM | EC50 [3, 8]: 288 nM | EC50 [3, 9]: 287 nM

C[C@H]1O[C@@H](O[C@H]2[C@@H](O)C[C@H](O[C@H]3[C@@H](O)C[C@H](O[C@H]4CC[C@@]5(C)[C@H](CC[C@@H]6[C@@H]5C[C@@H](O)[C@]5(C)[C@@H](C7=CC(=O)OC7)CC[C@]65O)C4)O[C@@H]3C)O[C@@H]2C)C[C@H](O)[C@@H]1O [Digoxin]
relevant concentration, increased pre-ejection period index ([2]; ref [10]): 1 ng/ml (1 nM) ([10], increased pre-ejection | EC50 ([3]; read-out: -log EC50 in hvCTS (converted)): 3630 nM | EC50 ([3]; read-out: EC50, developed contractile force): 3700 nM | EC50 ([3]; read-out: EC50 in hvCTS (in brackets)): 3650 nM

CC(C)N(CCC(C(N)=O)(c1ccccc1)c1ccccn1)C(C)C (centres unmarked) [Disopyramide]
EC50 [3, 14]: 80000 nM | EC50 [3, 11]: 81300 nM | EC50 [3, 12]: 82200 nM | EC50 of developed tension (canine papillary muscle): 824 μg [11], EC50 of developed tension in canine

CC(CCc1ccc(O)cc1)NCCc1ccc(O)c(O)c1 (centres unmarked) [Dobutamine]
peak plasma concentration with increased cardiac output ([2]; ref [12]): 147-152 ng/ml and 0.487-0.5 μM | EC50 [3, 13]: 250 nM | EC50 [3, 14]: 15 nM | EC50 [3, 8]: 245 nM | EC50 [3, 9]: 250 nM | EC50 [3, 11]: 15.1 nM | EC50 [3, 12]: 15 nM | relevant concentration (human atrial trabeculae): 0.217 μM [13], human atrial trabeculae

NCCc1ccc(O)c(O)c1 [Dopamine]
effect on developed contractile force / contractility ([3]; blinded screening, Example 4): did not significantly affect the developed contractile force | relevant concentration (rat atrial trabeculae): 20 μM [14], in rat atrial trabeculae

O=C(NCC1CCCCN1)c1cc(OCC(F)(F)F)ccc1OCC(F)(F)F (centres unmarked) [Flecainide]
IC50 [3, 7]: 15 µM | EC50 [3, 14]: 75000 nM | EC50 [3, 8]: 15100 nM | EC50 [3, 9]: 151000 nM | EC50 [3, 11]: 75900 nM | EC50 [3, 12]: 75000 nM

COc1ccc(Cl)cc1C(=O)NCCc1ccc(S(=O)(=O)NC(=O)NC2CCCCC2)cc1 [Glibenclamide]
peak plasma concentration for improved ejection fraction and work product ([2]; after 5 mg oral administration): 479 ng/ml and 0.096 μM | EC50 [3, 13]: 3200 nM | EC50 [3, 14]: 930 nM | EC50 [3, 8]: 3160 nM | EC50 [3, 9]: 3170 nM | EC50 [3, 11]: 933 nM | EC50 [3, 12]: 930 nM

C[C@@H]1CC(=O)NN=C1c1ccc(NN=C(C#N)C#N)cc1 [Levosimendan]
EC50 [3, 14]: 150 nM | EC50 [3, 11]: 145 nM | EC50 [3, 12]: 150 nM | relevant concentration (human atrial trabeculae): 0.19 μM [13], human atrial trabeculae

NCCCC[C@H](N[C@@H](CCc1ccccc1)C(=O)O)C(=O)N1CCC[C@H]1C(=O)O [Lisinopril]
effect on developed contractile force / contractility ([3]; blinded screening, Example 4): small increase in developed contractile force with increasing concentrations

COCC(=O)O[C@]1(CCN(C)CCCc2nc3ccccc3[nH]2)CCc2cc(F)ccc2[C@@H]1C(C)C [Mibefradil]
IC50 [6]: 24.5 µM | IC50 [3, 10]: 38 µM | EC50 [3, 11]: 3160 nM | EC50 [3, 12]: 3390 nM

Cc1[nH]c(=O)c(C#N)cc1-c1ccncc1 [Milrinone]
EC50 [3, 13]: 2800 nM | EC50 [3, 14]: 410 nM | EC50 [3, 8]: 2750 nM | EC50 [3, 9]: 2770 nM | EC50 [3, 11]: 407 nM | EC50 [3, 12]: 410 nM

COC(=O)C1=C(C)NC(C)=C(C(=O)OC)C1c1ccccc1[N+](=O)[O-] [Nifedipine]
plasma concentration in patients with ischemic heart disease ([2]; ref [23]): 29-73 ng/ml and 0.083-0.21 μM

NC[C@H](O)c1ccc(O)c(O)c1 [Norepinephrine]
plasma level after epinephrine infusion ([2]; ref [24]): 267 pg/ml and 0.15 nM | EC50 [3, 13]: 350 nM | EC50 [3, 8]: 347 nM | EC50 [3, 9]: 350 nM

CCN(CC)CCNC(=O)c1ccc(N)cc1 [Procainamide]
EC50 of developed tension (canine papillary muscle): 7952 μg [11], EC50 of developed tension in canine

C=C[C@H]1C[N@@]2CC[C@H]1C[C@@H]2[C@@H](O)c1ccnc2ccc(OC)cc12 [Quinidine]
peak plasma concentration ([2]; at 495 mg, ref [26]): 2.07 μg/ml and 6.3 μM | IC50 [3, 7]: 200 µM | EC50 [3, 8]: 204000 nM | EC50 [3, 9]: 200000 nM

CCOC(=O)[C@H](CCc1ccccc1)N[C@@H](C)C(=O)N1[C@H](C(=O)O)C[C@@H]2CCC[C@@H]21 [Ramipril]
effect on developed contractile force / contractility ([3]; blinded screening, Example 4): did not show any dose-dependent effect on contractility

Cc1cccc(C)c1NC(=O)C(C)N (centres unmarked) [Tocainide]
effect on developed contractile force ([3]; all concentrations and pacing frequencies, unblinded screening, Example 3): did not show any effect on developed contractile force | effect on developed contractile force ([3]; all tested pacing frequencies, Example 2 / FIG. 2): no dose-dependent effect on contractile force | effect on developed contractile force ([3]; all tested pacing frequencies, Example 2 / FIG. 2, listed as tocainide): No consistent change in developed contractile force | EC50 of developed tension (canine papillary muscle): 1212 μg [11], EC50 of developed tension in canine

CCCCNC(=O)NS(=O)(=O)c1ccc(C)cc1 [Tolbutamide]
peak plasma concentration for improved ejection fraction and work product ([2]; after 1250 mg oral administration): 63.5 μg/ml and 230 μM | effect on developed contractile force / contractility ([3]; blinded screening, Example 4): did not show any dose-dependent effect on contractility
